Source: ChEMBL document CHEMBL1201862, “PubChem BioAssay data set” (2004)
The source made the active and inactive calls.

Columns and labels:
[1] = molecular target: T1, High affinity choline transporter 1 (Homo sapiens, UniProt Q9GZV3); experiment: CHT inhibitors, dose response, cell-based, 5-point CRC, membrane potential dye (AID 504840); assay type: functional
T1 sequence (Q9GZV3 whole entry): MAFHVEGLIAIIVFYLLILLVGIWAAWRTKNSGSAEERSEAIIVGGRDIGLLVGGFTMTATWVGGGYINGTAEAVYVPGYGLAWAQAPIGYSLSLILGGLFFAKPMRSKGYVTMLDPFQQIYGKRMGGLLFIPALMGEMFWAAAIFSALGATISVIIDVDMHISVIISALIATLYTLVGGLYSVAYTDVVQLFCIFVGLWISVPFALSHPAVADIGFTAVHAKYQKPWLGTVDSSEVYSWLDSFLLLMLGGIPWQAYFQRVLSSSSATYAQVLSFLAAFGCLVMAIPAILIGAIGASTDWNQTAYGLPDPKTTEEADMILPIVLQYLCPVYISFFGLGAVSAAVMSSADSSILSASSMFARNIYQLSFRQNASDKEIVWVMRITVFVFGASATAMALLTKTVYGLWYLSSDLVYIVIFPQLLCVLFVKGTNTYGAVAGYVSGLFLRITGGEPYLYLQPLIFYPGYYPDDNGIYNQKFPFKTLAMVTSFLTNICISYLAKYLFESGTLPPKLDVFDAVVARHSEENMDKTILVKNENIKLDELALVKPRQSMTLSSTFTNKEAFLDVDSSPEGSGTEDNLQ

[2] = molecular target: T1, High affinity choline transporter 1; experiment: CHT inhibitors, dose response, cell-based, 10-point CRC, membrane potential dye (AID 588401); assay type: functional;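 further: membrane potential dye fluorescence of choline-evoked depolarization via CHT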
Cytochrome P450 2D6 = Cytochrome P450 2D6 (Homo sapiens, UniProt P10635);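 further: CYP2D6 member of a cytochrome P450 panel assay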
[3] = inhibitors of intracellular T. cruzi replication, confirmation, NIH3T3 host cells, beta-gal luminescence (AID 2044); assay type: functional, cell-based;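 further: intracellular parasites grown in NIH/3T3 mouse fibroblasts as host cells; luminescent beta-galactosidase reporter signal from transgenic T. cruzi replicating inside host cells; inhibitors lower the luminescence signal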
[4] = growth suppression of PTEN-null colon cells, dose response, cell-based, HCT116 PTEN knockout (AID 1047); assay type: functional;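 further: HCT116 colon tumor cells with PTEN knocked out; cells exposed to compound for 60 hours before readout; potency for loss of cell viability measured by luminescence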
[5] = cytotoxicity toward NIH3T3 fibroblasts, dose response, counter-screen, cell-based, ATP luminescence, mouse fibroblasts (AID 2010); assay type: functional;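 further: cells exposed to compound for about 90 hours before reading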
[6] = growth suppression of beta-catenin-knockout colon cells, dose response, cell-based, HCT116, human colon tumor (AID 1045); assay type: functional;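 further: HCT116 colon tumor cells with beta catenin knocked out; cells exposed to compound for 60 hours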
[7] = molecular target: T2, Microphthalmia-associated transcription factor (Homo sapiens, UniProt O75030); experiment: TRPM1 promoter luciferase signal decrease, dose response, MITF inhibitor project, cell-based, SK-MEL-5, cherry-picked, set 3 (AID 493073); assay type: functional
T2 sequence (O75030 whole entry): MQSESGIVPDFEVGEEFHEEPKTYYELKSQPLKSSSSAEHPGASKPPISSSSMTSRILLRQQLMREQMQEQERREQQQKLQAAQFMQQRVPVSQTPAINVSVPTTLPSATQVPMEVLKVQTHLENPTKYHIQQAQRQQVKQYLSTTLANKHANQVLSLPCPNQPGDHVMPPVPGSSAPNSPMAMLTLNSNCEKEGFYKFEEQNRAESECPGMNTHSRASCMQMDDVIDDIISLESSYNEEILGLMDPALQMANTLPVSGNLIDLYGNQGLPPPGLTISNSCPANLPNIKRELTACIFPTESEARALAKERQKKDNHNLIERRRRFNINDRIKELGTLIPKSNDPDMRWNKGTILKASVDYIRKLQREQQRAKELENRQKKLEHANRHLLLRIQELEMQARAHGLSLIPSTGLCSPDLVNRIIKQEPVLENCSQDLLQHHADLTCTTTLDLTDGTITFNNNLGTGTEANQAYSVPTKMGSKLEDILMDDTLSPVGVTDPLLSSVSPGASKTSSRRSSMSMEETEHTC

[8] = molecular target: T3, Heat shock factor protein 1 (Mus musculus, UniProt P38532); experiment: inhibition of MG132-induced HSE-luciferase signal, confirmation, cell-based, NIH3T3, luminescence, dose retest (AID 2382); assay type: functional;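 further: NIH3T3 fibroblasts with HSF1-driven luciferase reporter stressed by proteasome inhibitor MG132; luminescence from HSF1-driven luciferase expression after 8 hours of MG132 stress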
T3 sequence (P38532 whole entry): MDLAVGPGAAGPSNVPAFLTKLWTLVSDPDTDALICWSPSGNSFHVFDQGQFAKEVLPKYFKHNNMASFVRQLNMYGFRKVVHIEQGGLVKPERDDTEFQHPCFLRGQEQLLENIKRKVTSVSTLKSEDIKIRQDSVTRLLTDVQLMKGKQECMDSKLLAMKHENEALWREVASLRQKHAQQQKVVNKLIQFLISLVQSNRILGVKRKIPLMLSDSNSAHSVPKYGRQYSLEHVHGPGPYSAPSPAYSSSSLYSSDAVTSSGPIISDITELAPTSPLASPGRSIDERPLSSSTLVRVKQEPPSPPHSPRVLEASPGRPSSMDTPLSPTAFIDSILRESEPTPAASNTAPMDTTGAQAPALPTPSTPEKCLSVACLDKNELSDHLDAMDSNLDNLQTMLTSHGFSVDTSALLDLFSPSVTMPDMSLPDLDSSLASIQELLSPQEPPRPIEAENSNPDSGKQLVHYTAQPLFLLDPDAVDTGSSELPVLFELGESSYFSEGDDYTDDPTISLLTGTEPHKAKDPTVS

[9] = molecular target: T4, Short transient receptor potential channel 4 (Mus musculus, UniProt Q9QUQ5); experiment: mouse TRPC4 channel inhibitors, dose response, cell-based, HEK293 TRPC4/mu-opioid, Fluo-4 calcium (AID 434942); assay type: functional;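 further: potency of inhibitors blocking the TRPC4 calcium response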
T4 sequence (Q9QUQ5 whole entry): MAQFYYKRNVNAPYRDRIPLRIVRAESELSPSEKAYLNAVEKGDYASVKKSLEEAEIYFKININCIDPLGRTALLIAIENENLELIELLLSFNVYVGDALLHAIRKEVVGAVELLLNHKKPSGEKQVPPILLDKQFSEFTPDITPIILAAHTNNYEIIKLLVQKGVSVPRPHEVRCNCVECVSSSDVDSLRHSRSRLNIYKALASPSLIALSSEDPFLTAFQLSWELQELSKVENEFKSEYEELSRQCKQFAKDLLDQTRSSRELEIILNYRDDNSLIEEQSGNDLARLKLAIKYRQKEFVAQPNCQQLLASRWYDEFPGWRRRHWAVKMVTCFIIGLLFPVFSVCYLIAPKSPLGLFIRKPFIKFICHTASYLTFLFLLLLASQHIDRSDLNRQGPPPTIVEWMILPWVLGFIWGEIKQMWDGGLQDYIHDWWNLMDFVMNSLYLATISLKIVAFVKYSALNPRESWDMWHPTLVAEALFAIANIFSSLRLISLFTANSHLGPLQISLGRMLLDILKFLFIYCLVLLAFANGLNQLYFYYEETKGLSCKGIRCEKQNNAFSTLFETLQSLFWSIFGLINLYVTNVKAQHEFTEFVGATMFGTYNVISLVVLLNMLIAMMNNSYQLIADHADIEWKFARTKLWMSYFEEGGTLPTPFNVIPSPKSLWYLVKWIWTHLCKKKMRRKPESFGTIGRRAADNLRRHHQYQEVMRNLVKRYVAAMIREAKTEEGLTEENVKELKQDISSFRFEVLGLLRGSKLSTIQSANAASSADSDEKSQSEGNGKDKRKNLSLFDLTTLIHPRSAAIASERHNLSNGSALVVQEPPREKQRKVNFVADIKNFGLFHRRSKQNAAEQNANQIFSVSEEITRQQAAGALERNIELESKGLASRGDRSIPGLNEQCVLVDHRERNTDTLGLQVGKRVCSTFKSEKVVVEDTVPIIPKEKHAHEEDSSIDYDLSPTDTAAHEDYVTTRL

[10] = molecular target: T4, Short transient receptor potential channel 4; experiment: mouse TRPC4 channel activators, dose response, cell-based, HEK293 TRPC4/mu-opioid, Fluo-4 calcium (AID 434937); assay type: functional
[11] = molecular target: T5, Voltage-gated N-type calcium channel alpha-1B subunit/Amyloid beta A4 precursor protein-binding family A member 1 (Homo sapiens, UniProt Q00975+Q02410); assay type: protein assay
[12] = molecular target: T5, Voltage-gated N-type calcium channel alpha-1B subunit/Amyloid beta A4 precursor protein-binding family A member 1; assay type: protein assay; remark: listed apart in the source
[13] = molecular target: T6, Calpain-2 catalytic subunit (Sus scrofa, UniProt P43367); experiment: pig calpain II inhibitor potency, dose response, biochemical, fluorogenic peptide substrate (AID 1420); assay type: functional
T6 sequence (P43367 whole entry): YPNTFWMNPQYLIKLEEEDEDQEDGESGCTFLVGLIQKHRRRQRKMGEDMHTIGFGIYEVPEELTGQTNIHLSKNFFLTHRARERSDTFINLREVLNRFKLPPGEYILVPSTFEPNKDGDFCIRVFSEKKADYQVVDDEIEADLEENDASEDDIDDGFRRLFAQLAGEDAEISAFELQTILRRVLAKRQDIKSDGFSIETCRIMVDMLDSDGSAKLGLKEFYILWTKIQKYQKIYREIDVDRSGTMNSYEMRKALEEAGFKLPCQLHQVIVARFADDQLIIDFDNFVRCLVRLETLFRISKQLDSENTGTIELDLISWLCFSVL

[14] = Luminescence-based cell-based high throughput dose response assay to identify activators of the DAF-12 from the parasite S. stercoralis (ssDAF-12).; assay type: functional
[15] = molecular target: Heat shock protein HSP 90-alpha (Homo sapiens, UniProt P07900); assay type: functional, organism-based
[16] = NIH-3T3 fibroblast cytotoxicity, dose response, cytotoxicity control, cell-based, fluorescence, Alamar Blue, secondary assay (AID 2327); assay type: functional;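 further: NIH-3T3 mouse fibroblasts cultured with fluconazole at 8 µg/mL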
[17] = system: Streptococcus sp. 'group A'; experiment: growth inhibition of control SK(-) GAS strain, dose response, counter-screen for streptokinase expression inhibitor project, luminescence, kanamycin, BacTiterGlo, confirmation (AID 1900); assay type: functional, organism-based
[18] = C. albicans growth with fluconazole, confirmation, fluorescence, retest (AID 2467); assay type: functional, cell-based
[19] = molecular target: Luciferin 4-monooxygenase (Photinus pyralis, UniProt P08659); experiment: firefly luciferase enzyme inhibitors, dose response, biochemical, luminescence (AID 1891)
[20] = Luminescence Cell-Based Dose Confirmation HTS to Identify Inhibitors of Platelet Dense Granule Release. [Related pubchem assays: 1663 (Primary HTS), 1678 (Summary of Project)]; assay type: functional
Streptococcus = experiment: Group A Streptococcus viability loss, dose response, counter-screen for streptokinase expression inhibitor project, luminescence, BacTiterGlo (AID 1915); assay type: functional, organism-based;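 further: potency for reduction of bacterial viability or growth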
HEK293 = experiment: inhibitors of LMP1-driven NF-kB reporter, dose response, cell-based, HEK293, luciferase, cherry-pick (AID 588343); assay type: functional; conditions: Homo sapiens
INS1 = experiment: beta cell apoptosis inhibitors, cytokine rescue, dose response, luminescence, retest (AID 449756); assay type: functional, cell-based; conditions: Rattus norvegicus;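 further: cell death triggered by IL-1 beta plus TNF-alpha plus IFN-gamma mixture; protective hits raise ATP signal compared with cytokine alone wells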

T5 sequence (Q00975 whole entry): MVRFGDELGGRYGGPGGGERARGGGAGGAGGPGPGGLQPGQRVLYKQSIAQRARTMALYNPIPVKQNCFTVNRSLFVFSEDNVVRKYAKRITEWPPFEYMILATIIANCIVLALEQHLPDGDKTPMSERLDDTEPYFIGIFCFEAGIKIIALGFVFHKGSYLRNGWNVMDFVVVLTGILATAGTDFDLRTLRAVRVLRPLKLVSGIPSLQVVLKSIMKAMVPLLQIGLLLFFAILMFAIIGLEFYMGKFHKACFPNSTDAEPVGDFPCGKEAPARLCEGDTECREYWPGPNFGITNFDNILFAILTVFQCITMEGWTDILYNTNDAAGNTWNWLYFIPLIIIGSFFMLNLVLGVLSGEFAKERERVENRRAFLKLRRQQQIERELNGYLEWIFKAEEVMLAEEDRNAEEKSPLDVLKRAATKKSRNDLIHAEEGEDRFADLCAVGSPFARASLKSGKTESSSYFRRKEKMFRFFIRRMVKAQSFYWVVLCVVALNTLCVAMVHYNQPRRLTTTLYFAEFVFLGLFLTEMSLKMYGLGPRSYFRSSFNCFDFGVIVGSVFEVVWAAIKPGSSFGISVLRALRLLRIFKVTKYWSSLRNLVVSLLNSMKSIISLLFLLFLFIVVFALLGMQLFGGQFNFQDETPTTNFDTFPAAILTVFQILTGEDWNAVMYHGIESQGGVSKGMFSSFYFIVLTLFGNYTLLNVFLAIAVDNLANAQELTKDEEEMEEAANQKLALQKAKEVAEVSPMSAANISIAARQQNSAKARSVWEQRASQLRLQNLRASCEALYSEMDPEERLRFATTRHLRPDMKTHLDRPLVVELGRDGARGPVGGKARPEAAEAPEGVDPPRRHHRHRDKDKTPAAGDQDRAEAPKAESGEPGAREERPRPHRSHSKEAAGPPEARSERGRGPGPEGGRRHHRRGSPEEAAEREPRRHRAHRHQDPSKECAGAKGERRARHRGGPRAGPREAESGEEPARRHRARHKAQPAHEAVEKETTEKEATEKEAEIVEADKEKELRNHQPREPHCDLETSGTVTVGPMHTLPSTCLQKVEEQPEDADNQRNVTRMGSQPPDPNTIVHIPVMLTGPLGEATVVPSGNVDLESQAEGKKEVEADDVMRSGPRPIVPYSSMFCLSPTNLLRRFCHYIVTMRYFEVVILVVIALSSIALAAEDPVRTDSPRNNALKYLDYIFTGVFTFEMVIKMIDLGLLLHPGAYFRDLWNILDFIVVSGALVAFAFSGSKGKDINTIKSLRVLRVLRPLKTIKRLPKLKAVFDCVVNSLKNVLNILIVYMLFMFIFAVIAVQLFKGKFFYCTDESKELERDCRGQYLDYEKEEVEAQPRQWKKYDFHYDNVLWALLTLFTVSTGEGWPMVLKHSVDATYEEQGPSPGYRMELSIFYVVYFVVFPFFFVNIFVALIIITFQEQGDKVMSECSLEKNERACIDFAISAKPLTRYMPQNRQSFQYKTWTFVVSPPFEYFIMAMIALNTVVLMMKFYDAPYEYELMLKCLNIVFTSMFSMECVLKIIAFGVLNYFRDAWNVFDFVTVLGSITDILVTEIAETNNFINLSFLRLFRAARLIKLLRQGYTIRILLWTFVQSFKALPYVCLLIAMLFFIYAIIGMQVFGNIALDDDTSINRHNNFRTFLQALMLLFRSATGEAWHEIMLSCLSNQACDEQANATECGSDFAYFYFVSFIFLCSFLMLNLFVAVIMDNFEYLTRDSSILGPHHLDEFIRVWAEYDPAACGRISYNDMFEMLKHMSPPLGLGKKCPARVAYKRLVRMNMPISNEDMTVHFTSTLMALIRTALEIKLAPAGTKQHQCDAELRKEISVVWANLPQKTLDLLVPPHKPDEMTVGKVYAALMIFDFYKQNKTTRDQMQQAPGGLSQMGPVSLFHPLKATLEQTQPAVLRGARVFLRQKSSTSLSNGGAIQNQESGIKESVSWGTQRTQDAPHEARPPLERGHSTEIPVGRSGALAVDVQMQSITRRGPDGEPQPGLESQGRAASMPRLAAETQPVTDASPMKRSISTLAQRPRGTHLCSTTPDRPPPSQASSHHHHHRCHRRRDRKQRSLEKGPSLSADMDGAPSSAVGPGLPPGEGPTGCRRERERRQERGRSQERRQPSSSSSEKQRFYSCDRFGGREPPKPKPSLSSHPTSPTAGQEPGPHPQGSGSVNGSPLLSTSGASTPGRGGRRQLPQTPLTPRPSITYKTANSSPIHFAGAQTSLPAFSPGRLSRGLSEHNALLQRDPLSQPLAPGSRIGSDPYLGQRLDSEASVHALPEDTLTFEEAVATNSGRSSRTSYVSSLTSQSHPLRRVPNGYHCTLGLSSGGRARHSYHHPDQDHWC
T5 sequence (Q02410 whole entry): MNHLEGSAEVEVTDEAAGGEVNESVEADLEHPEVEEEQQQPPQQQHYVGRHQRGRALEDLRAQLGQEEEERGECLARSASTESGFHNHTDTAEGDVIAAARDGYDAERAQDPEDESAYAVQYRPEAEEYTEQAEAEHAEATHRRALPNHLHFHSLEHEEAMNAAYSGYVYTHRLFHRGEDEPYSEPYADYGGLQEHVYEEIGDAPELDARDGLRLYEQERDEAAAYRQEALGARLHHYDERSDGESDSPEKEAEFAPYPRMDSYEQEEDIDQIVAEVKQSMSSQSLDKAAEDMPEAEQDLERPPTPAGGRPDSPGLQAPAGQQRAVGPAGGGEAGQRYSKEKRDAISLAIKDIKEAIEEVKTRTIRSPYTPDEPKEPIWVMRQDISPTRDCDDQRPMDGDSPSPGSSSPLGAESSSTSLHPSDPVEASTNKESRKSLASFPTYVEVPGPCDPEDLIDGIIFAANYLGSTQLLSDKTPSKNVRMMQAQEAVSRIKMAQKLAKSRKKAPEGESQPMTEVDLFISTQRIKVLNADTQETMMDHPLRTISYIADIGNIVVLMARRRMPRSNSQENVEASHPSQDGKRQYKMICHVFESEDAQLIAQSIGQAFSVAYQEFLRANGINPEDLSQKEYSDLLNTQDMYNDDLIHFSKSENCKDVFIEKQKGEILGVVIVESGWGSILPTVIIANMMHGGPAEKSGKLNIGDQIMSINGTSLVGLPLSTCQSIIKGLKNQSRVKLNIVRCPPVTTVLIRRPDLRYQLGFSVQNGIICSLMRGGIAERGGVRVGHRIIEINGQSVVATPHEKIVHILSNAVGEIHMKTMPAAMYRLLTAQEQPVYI
Chain of Cytochrome P450 2D6 (P10635 whole entry): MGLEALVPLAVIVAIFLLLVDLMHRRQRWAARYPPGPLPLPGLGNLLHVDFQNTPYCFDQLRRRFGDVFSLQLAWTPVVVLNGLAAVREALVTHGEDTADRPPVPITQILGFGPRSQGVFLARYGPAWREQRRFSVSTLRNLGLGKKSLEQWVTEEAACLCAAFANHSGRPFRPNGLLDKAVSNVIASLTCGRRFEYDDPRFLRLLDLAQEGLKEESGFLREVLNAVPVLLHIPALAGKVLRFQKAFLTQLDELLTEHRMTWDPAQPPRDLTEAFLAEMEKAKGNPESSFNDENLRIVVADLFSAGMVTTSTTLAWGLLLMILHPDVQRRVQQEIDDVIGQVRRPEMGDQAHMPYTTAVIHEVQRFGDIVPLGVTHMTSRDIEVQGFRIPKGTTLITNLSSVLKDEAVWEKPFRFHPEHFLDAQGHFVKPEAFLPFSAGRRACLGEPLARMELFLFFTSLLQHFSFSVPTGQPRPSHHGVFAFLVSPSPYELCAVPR
Chain of Luciferin 4-monooxygenase (P08659 whole entry): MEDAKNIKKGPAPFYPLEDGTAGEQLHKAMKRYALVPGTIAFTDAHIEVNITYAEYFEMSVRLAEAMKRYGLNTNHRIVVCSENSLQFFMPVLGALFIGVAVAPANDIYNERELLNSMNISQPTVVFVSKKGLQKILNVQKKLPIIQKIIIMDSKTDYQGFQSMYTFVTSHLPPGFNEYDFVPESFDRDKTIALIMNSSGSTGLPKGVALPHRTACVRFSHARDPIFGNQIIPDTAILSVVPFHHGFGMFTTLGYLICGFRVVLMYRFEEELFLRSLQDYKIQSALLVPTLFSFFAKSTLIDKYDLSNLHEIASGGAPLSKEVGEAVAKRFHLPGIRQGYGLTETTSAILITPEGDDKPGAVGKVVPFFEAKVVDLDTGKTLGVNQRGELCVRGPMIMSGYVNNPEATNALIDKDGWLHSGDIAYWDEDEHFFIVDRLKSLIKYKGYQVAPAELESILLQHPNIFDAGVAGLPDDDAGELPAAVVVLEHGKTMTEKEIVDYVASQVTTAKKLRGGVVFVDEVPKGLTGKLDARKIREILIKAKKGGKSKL

Compound: Cc1nccn1C[C@@H]1CCc2c(c3ccccc3n2C)C1=O [(S)-ONDANSETRON]
- IC50 [1]: 0.0214 µM (active)
- IC50 [2]: 1.12 µM (active)
- AC50 (Cytochrome P450 2D6): 10 µM (inconclusive)

Compound: N#Cc1c(N)nc(SCc2ccccn2)c(C#N)c1-c1cccs1
- IC50 [1]: 0.158 µM (active)
- IC50 [2]: 0.0829 µM (active)

Compound: COc1cccc(Nc2nc(NCC3CCCO3)c3ccccc3n2)c1 (stereo not given)
- EC50 [3]: < 0.1 µM (active)
- EC50 [4]: 7.57 µM (active)
- EC50 [5]: > 30 µM (not active)
- EC50 [6]: 7.05 µM (active)
- EC50 (cells): 0.443 µM (active)

Compound: COc1ccc(S(=O)(=O)N2CCCCC2)cc1NC(=O)c1ccc([N+](=O)[O-])o1
- EC50 [3]: 4.55 µM (active)
- EC50 [5]: 11.9 µM (active)
- AC50 [7]: 9.14 µM (active)

Compound: CCc1ccc(C(CNc2nc(C(F)(F)F)nc3ccccc23)N(C)C)cc1 (stereo not given)
- EC50 [8]: > 195 µM (not active)
- EC50 [9]: 1.06 µM (active)
- EC50 [10]: 2.99 µM (active)

Compound: COc1cccc(/N=c2\oc3ccc(OC)cc3cc2-c2nc3ccccc3[nH]2)c1
- IC50 [11]: 41 µM (active)
- IC50 [12]: > 50 µM (inactive)
- IC50 [13]: 7.91 µM (active)
- IC50 [14]: > 67.5 µM (inactive)

Compound: COc1ccc2nc(N(CCN(C)C)C(=O)c3ccc4c(c3)OCCO4)sc2c1
- EC50 [3]: < 0.1 µM (active)
- EC50 [5]: > 60 µM (not active)
- EC50 (cells): 0.095 µM (active)

Compound: CCn1c2ccccc2c2cc(CNCCCN3CCOCC3)ccc21
- EC50 [3]: < 0.1 µM (active)
- EC50 [5]: > 60 µM (not active)
- EC50 (cells): 0.013 µM (active)

Compound: CCN=C(S)N1CCC(C(O)(c2ccccc2)c2ccccc2)CC1
- EC50 [9]: 1.68 µM (active)
- EC50 [10]: 10.6 µM (active)

Compound: CCc1ccc(CN(C)CCc2ccccn2)cc1
- EC50 [3]: < 0.1 µM (active)
- EC50 [5]: > 30 µM (not active)
- EC50 (cells): 0.035 µM (active)

Compound: CN1CCC(CNC(=O)Nc2ccccc2)(c2ccccc2)CC1
- EC50 [10]: 1.33 µM (active)

Compound: COC1CCC(OC2CC(C3(C)CCC4(CC(O)C(C)C(C(C)/C=C(\C)C(=O)C(C)CC(C)C(=O)O)O4)O3)OC3(OC(C4OC(O)(CO)C(C)CC4C)CC3C)C2C)OC1C (stereo not given)
- AC50 [15]: 5.72 µM (active)

Compound: CN(C)C(CN=C(S)Nc1ccc(F)cc1)c1cccnc1 (stereo not given)
- EC50 [10]: 0.0173 µM (active)

Compound: O=C(NC(c1ccc(Cl)cc1)c1cc(Cl)c2cccnc2c1O)c1cccnc1 (stereo not given)
- EC50 [16]: 8.56 µM (inconclusive)
- EC50 [17]: 0.73 µM (active)
- EC50 [18]: 0.66 µM (active)
- EC50 [19]: > 112 µM (not active)
- EC50 [20]: > 112 µM (not active)
- EC50 [3]: 0.253 µM (active)
- EC50 [5]: 6.88 µM (active)
- EC50 (Streptococcus): 1.36 µM (active)
- AC50 (HEK293): 2 µM (active)
- AC50 [15]: 24.2 µM (active)
- AC50 (INS1): 0.951 µM (active)

Compound: N#Cc1cc2c(nc1SC1CC(=O)N(c3ccccc3)C1=O)CCC2 (stereo not given)
- AC50 [7]: 1.78 µM (active)

Compound: O=c1c2ccccc2[nH]c(=S)n1CCN1CCCC1
- IC50 [1]: 8.33 µM (active)
- IC50 [2]: 4.01 µM (active)

Compound: Cc1cccc(N2CCN(C(=O)CCCn3c(=O)[nH]c4ccsc4c3=O)CC2C)c1 (stereo not given)
- IC50 [1]: 9.39 µM (active)
- IC50 [2]: 8.43 µM (active)
